Source: US11178869B2, “Microbiocidal quinoline (thio)carboxamide derivatives” (priority 2017, dated 2021)

What was measured:
Pyrenophora teres = Pyrenophora teres / barley / leaf disc preventative (net blotch); assay type: in vivo, Pyrenophora teres on barley leaf segments cv. Hasso; details: foliar, barley leaf segments, compared to untreated control, 5-7 days after application
[1] = tested on: Monographella nivalis (Microdochium nivale); experiment: Monographella nivalis (Microdochium nivale) / liquid culture (foot rot cereals); assay type: cell-based; details: 200 ppm, compared to untreated control, growth inhibition photometrically 4-5 days after application, read-out: disease control
Fusarium culmorum [2] = experiment: microbe, parasite or virus in culture; assay type: cell-based; details: read-out: disease control
[3] = tested on: Glomerella lagenarium (Colletotrichum lagenarium); experiment: Glomerella lagenarium (Colletotrichum lagenarium) / liquid culture (anthracnose); assay type: cell-based; details: Colletotrichum orbiculare; 200 ppm; compared to untreated control; growth inhibition photometrically 3-4 days after application; read-out: disease control
Sclerotinia sclerotiorum = Sclerotinia sclerotiorum / liquid culture (cottony rot); details: read-out: control of Sclerotinia sclerotiorum
Protocol: Sclerotinia sclerotiorum/Liquid Culture (Cottony Rot)
Mycelia fragments of a newly grown liquid culture of the fungus are directly mixed into nutrient broth (Vogels broth). After placing a (DMSO) solution of test compound into a microtiter plate (96-well format) the nutrient broth containing the fungal material is added. The test plates are incubated at 24° C. and the inhibition of growth is determined photometrically 3-4 days after application.

[4] = tested on: Magnaporthe grisea (Pyricularia oryzae); experiment: microbe, parasite or virus in culture; assay type: cell-based; details: read-out: control of Magnaporthe grisea
Fusarium culmorum [5] = experiment: whole plant or invertebrate; assay type: in vivo, Fusarium culmorum on wheat spikelets cv. Monsun; details: in Triticum aestivum, 144 h, read-out: control of Fusarium culmorum
[6] = tested on: Botryotinia fuckeliana (Botrytis cinerea); experiment: Botryotinia fuckeliana (Botrytis cinerea) / liquid culture (gray mould); assay type: cell-based; details: 72 h, 200 ppm, compared to untreated control, growth inhibition photometrically 3-4 days after application, read-out: disease control
Gaeumannomyces graminis = Gaeumannomyces graminis / liquid culture (take-all of cereals); assay type: cell-based; details: compared to untreated control, 4-5 days after application

Compound	pest or weed control at 200 ppm (Pyrenophora teres) [%]	melting point [°C]	inhibition of growth at 200 ppm [1] [%]	inhibition of growth at 200 ppm (Fusarium culmorum [2]) [%]	inhibition of growth at 200 ppm [3] [%]	inhibition of growth at 20 ppm (Sclerotinia sclerotiorum) [%]	inhibition of growth at 20 ppm [4] [%]	pest or weed control at 200 ppm (Fusarium culmorum [5]) [%]	inhibition of growth at 200 ppm [6] [%]	inhibition of growth at 20 ppm (Gaeumannomyces graminis) [%]
CC(C)C(C#Cc1ccccc1)NC(=O)c1cnc2c(Cl)cccc2c1 (centres unmarked) [Compound F-2, 8-chloro-N-(1-isopropyl-3-phenyl-prop-2-ynyl)quinoline-3-carboxamide]	≥ 80	168 to 170	≥ 80	≥ 80						
CCC(C)(C#Cc1ccccc1)NC(=O)c1cnc2c(Cl)cccc2c1 (centres unmarked) [Compound F-11, 8-chloro-N-(1-ethyl-1-methyl-3-phenyl-prop-2-ynyl)quinoline-3-carboxamide]	≥ 80	161 to 162	≥ 80	≥ 80	≥ 80	≥ 80	≥ 80	≥ 80	≥ 80	
CCC(C)(C#Cc1ccccc1)NC(=O)c1cnc2c(F)cccc2c1 (centres unmarked) [Compound F-17, N-(1-ethyl-1-methyl-3-phenyl-prop-2-ynyl)-8-fluoro-quinoline-3-carboxamide]	≥ 80	129 to 132	≥ 80	≥ 80	≥ 80		≥ 80	≥ 80	≥ 80	
CC(C)(C#Cc1ccccc1)NC(=O)c1cnc2c(F)cccc2c1 [Compound F-55, N-(1,1-dimethyl-3-phenyl-prop-2-ynyl)-8-fluoro-quinoline-3-carboxamide]	≥ 80	151 to 155	≥ 80	≥ 80	≥ 80				≥ 80	≥ 80
CC(C)C[C@@H](C#Cc1ccccc1)NC(=O)c1cnc2c(F)cccc2c1 [Compound G-4, 8-fluoro-N-[(1S)-3-methyl-1-(2-phenylethynyl)butyl]quinoline-3-carboxamide]	≥ 80			≥ 80	≥ 80		≥ 80	≥ 80	≥ 80	≥ 80
